pEC50, pIC50: −log10 of the molar value. Where “and” joins values, the source holds several entries; their conditions need not be identical. Equal values may be shown once. Read-outs that look alike come from different tables or passages of the source.
Tests used:
[1] = system: HL60 cells; assay: Inhibition of cell proliferation assay (SRB), HL60; type: cell-based; conditions: Homo sapiens, read-out: IC50 cell proliferation HL60
Method: (§1) Human promyelocytic leukemia cell lines HL60 and NB4 were employed to determine the effects of the derivatives on cell proliferation. […] Alkoxy-substitution at the 2-position (i.e., compounds 36f, 36g) harmed the cell proliferation inhibitory activity of the compounds in both cell lines while the isopropyl group at the same position (compound 36h) is favourable. The extension of the π system by an alkenyl bond or a ketone group, as in 36j–l, didn’t affect the compounds’ inhibitory activity in HL60 cells but nulified their activity in NB4 cells. The indene ring tolerates the dual-introduction of a small alkoxyl and an alkyl group at 1- and 2-position, respectively, to retain the antiproliferative activity in HL60 cells.
(§2) Cells were seeded in 96-well plates (Corning Inc.) with a density of 2500 cells (NB4 or HL60) per well for overnight. Then, cells were exposed to each of the test compounds 36a–36p in gradient concentration of 10^−9, 10^−8, 10^−7, 10^−6, 10^−5 mol/L. Control cultures were treated with the same volume of DMSO. After 72 hours of incubation, the cell density in each well were fixed by trichloroacetic acid and then measured using the SRB (sulforhodamine B) method. After rinsing, the SRB was solubilized in TrisHCl, and the optical density of each culture was determined with a Bio-Tek Elx 800 absorbance microplate reader (BioTek, Shoreline, WA, USA). The OD of the treated cultures was divided by that of the control cultures treated with solvent alone.

[2] = system: NB4 cells; assay: Cell differentiation assay (CD11b, FACS), NB4; type: cell-based, human
Method: (§3) The effects of 36a–g on the differentiation of HL60 and NB4 cells were then assessed.
(§4) Cells (1 × 10^6/mL) were treated with compounds at different concentrations based on IC50 in Table 2 […]. After the treatment, cells were washed twice with PBS and then fixed with 75% alcohol overnight at −20 °C. The fixed cells were washed with PBS and blocked with 95 μL 3% BSA in PBS for 45 min at room temperature. The cells were incubated with 5 μL CD11b-PE at 4 °C for 45 min with protection from light. The antigens were then determined by a FACSCalibur flow cytometer (BD Biosciences Pharmingen, San Diego, CA, USA). The percentages of positive cells were quantitated using CellQuest Pro software. Cells stained with mouse IgG-PE served as negative controls. Both CD11b-PE and mouse IgG-PE antibodies were purchased from BD Biosciences. At least 10,000 cells were analyzed for each data point.

[3] = system: NB4 cells; assay: Inhibition of cell proliferation assay (SRB), NB4; type: cell-based, human; conditions: read-out: IC50 cell proliferation NB4
Method: as §1, §2

[4] = system: HL60 cells; assay: Cell differentiation assay (CD11b, FACS), HL60; type: cell-based, human
Method: as §3, §4

[5] = target: T1, RARα (RAR alpha LBD-GST) (Homo sapiens, UniProt P10276); assay: Receptor binding assay (LanthaScreen TR-FRET RAR alpha Coactivator Assay); conditions: 1 h incubation, AM80 positive control, read-out: RARα binding affinity EC50
T1 construct: A mixture of 5 nM RAR alpha LBD-GST, 5 nM TbAnti-GST antibody, 50 nM Fluorescein-D22 was added to the wells; purchased Invitrogen
T1 sequence (P10276 183-417 limits assumed): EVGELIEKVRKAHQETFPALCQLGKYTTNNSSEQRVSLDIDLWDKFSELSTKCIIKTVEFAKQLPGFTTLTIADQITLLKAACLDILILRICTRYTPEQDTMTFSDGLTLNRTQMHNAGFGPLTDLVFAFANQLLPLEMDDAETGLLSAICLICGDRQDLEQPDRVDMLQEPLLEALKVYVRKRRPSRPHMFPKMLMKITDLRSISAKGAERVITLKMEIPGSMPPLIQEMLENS
Method: The obtained target compounds were tested for their binding affinities to RARα using a time resolved fluorescence resonance energy transfer (TR-FRET) assay with AM80 as the positive control.
All synthesized compounds were tested for their binding affinity by using time resolved fluorescence resonance energy transfer (TR-FRET) assay, which used a LanthaScreen® TR-FRET RAR alpha Coactivator Assay Kit (Invitrogen, Carlsbad, CA, USA). Briefly, all experiments were performed in black 384-well low-volume plates (Corning Inc., Corning, NY, USA) in dark at room temperature. The final assay volume was 20 μL. All dilutions were made in assay buffer (TR-FRET Coregulator Buffer D). The final DMSO concentration was 1%. A mixture of 5 nM RAR alpha LBD-GST, 5 nM TbAnti-GST antibody, 50 nM Fluorescein-D22 was added to the wells. The only variable is the agonist concentration (6.1 × 10^−11~1.0 × 10^−6 M final concentrations of each retinoid). […] Data were analyzed by using GraphPad Prism software (GraphPad Software, Inc., La Jolla, CA, USA) and FRET signal was determined for all treatments by dividing 520 nm/495 nm signals. Graphs plotted as fold change of FRET signal for compounds treatment over DMSO only treatment.

[6] = HL-60, HL60 cells, 72 hours, SRB
[7] = Homo sapiens, NB-4, 72 h, NB4 cells, 72 hours, SRB

| Compound | pIC50 ([1]; HL-60, 72 h) | CD11b (%) NB4 ([2]; 10 μM) | pIC50 ([3]; Homo sapiens, NB-4, 72 h) | CD11b (%) HL60 ([4]; 10 μM) | pIC50 [1, 6] | pEC50 [5] | CD11b (%) NB4 ([2]; 5 μM) | pIC50 [3, 7] | melting point [°C] | CD11b (%) HL60 ([4]; 50 μM) | pIC50 ([3]; NB4 cells, 72 hours, SRB) | CD11b (%) NB4 ([2]; 20 μM) |
| --- | --- | --- | --- | --- | --- | --- | --- | --- | --- | --- | --- | --- |
| CC1(C)CCC(C)(C)c2cc(NC(=O)c3ccc(C(=O)O)cc3)ccc21 [AM80, reference compound] | 6.77 | 94.93 (10 μM) % | 4.88 | 4.59 (10 μM) % |  |  |  |  |  |  |  |  |
| O=C(O)c1ccc(C(=O)Nc2ccc3c(c2)CCC3)cc1 [Compound 36a, 4-((2,3-Dihydro-1H-inden-5-yl)carbamoyl)benzoic acid] |  |  |  |  | < 4.30 | 7.92 | 0.97 (5 μM) % | 5.16 | > 250 | 1.13 (50 μM) % |  |  |
| COC1CCc2ccc(NC(=O)c3ccc(C(=O)O)cc3)cc21 (stereo not drawn) [Compound 36b, 4-((3-Methoxy-2,3-dihydro-1H-inden-5-yl)carbamoyl)benzoic acid] |  |  |  |  | 6.89 | 6.89 |  | 4.45 | > 250 |  |  |  |
| CCOC1CCc2ccc(NC(=O)c3ccc(C(=O)O)cc3)cc21 (stereo not drawn) [Compound 36c] |  |  |  |  |  |  |  |  | > 250 |  |  |  |
| CC(C)OC1CCc2ccc(NC(=O)c3ccc(C(=O)O)cc3)cc21 (stereo not drawn) [Compound 36d, 4-((3-Isopropoxy-2,3-dihydro-1H-inden-5-yl)carbamoyl)benzoic acid] |  |  |  |  | < 4.30 | 7.62 | 68.88% and 68.88 (5 μM) % | 5.39 to 5.73 | > 250 | 3.77 (50 μM) % | 5.73 |  |
| CCCCOC1CCc2ccc(NC(=O)c3ccc(C(=O)O)cc3)cc21 (stereo not drawn) [Compound 36e, 4-((3-Butoxy-2,3-dihydro-1H-inden-5-yl)carbamoyl)benzoic acid] |  |  |  |  | < 4.30 | 7.83 | 15.42 (5 μM) % |  | > 250 | 2.87 (50 μM) % |  |  |
| COC1Cc2ccc(NC(=O)c3ccc(C(=O)O)cc3)cc2C1 (stereo not drawn) [Compound 36f, 4-((2-Methoxy-2,3-dihydro-1H-inden-5-yl)carbamoyl)benzoic acid] |  |  |  |  | < 4.30 | < 6.00 |  | < 4.30 | > 250 |  |  |  |
| CCOC1Cc2ccc(NC(=O)c3ccc(C(=O)O)cc3)cc2C1 (stereo not drawn) [Compound 36g, 4-((2-Ethoxy-2,3-dihydro-1H-inden-5-yl)carbamoyl)benzoic acid] |  |  |  |  | < 4.30 | < 6.00 |  | 4.66 | > 250 | 5.82 (50 μM) % |  | 0.49 (20 μM) % |
| CC(C)C1Cc2ccc(NC(=O)c3ccc(C(=O)O)cc3)cc2C1 (stereo not drawn) [Compound 36h, 4-((2-Isopropyl-2,3-dihydro-1H-inden-5-yl)carbamoyl)benzoic acid] |  |  |  |  | 6.04 | 7.37 |  | 5.58 | > 250 |  |  |  |
| CC1=Cc2cc(NC(=O)c3ccc(C(=O)O)cc3)ccc2C1 [Compound 36i, 4-((2-Methyl-1H-inden-5-yl)carbamoyl)benzoic acid] |  |  |  |  | < 4.30 | 7.85 |  | < 4.30 | > 250 |  |  |  |
| CC(C)C1=Cc2cc(NC(=O)c3ccc(C(=O)O)cc3)ccc2C1 [Compound 36j, 4-((2-Isopropyl-1H-inden-5-yl)carbamoyl)benzoic acid] |  |  |  |  | 5.63 | 8.45 |  | < 4.30 | > 250 |  |  |  |
| CC1Cc2ccc(NC(=O)c3ccc(C(=O)O)cc3)cc2C1=O (stereo not drawn) [Compound 36k, 4-((2-Methyl-3-oxo-2,3-dihydro-1H-inden-5-yl)carbamoyl)benzoic acid] |  |  |  |  | 5.58 |  |  | < 4.30 | > 250 |  |  |  |
| CC(C)C1Cc2ccc(NC(=O)c3ccc(C(=O)O)cc3)cc2C1=O (stereo not drawn) [Compound 36l, 4-((2-Isopropyl-3-oxo-2,3-dihydro-1H-inden-5-yl)carbamoyl)benzoic acid] |  |  |  |  | 5.68 | 8.33 |  | 4.43 | > 250 |  |  |  |
| COC1c2cc(NC(=O)c3ccc(C(=O)O)cc3)ccc2CC1C (stereo not drawn) [Compound 36m, 4-((3-Methoxy-2-methyl-2,3-dihydro-1H-inden-5-yl)carbamoyl)benzoic acid] |  |  |  |  | 6.37 | 6.53 |  | < 4.30 | > 250 |  |  |  |
| CCOC1c2cc(NC(=O)c3ccc(C(=O)O)cc3)ccc2CC1C (stereo not drawn) [Compound 36n, 4-((3-Ethoxy-2-methyl-2,3-dihydro-1H-inden-5-yl)carbamoyl)benzoic acid] |  |  |  |  | 6.10 | 6.84 |  | 5.07 | > 250 |  |  |  |
| COC1c2cc(NC(=O)c3ccc(C(=O)O)cc3)ccc2CC1C(C)C (stereo not drawn) [Compound 36o, 4-((2-Isopropyl-3-methoxy-2,3-dihydro-1H-inden-5-yl)carbamoyl)benzoic acid] |  |  |  |  | 5.63 | 8.41 |  | < 4.30 | > 250 |  |  |  |
| CCOC1c2cc(NC(=O)c3ccc(C(=O)O)cc3)ccc2CC1C(C)C (stereo not drawn) [Compound 36p, 4-((3-Ethoxy-2-isopropyl-2,3-dihydro-1H-inden-5-yl)carbamoyl)benzoic acid] |  |  |  |  | 5.95 | 8.04 |  | 5.12 | > 250 |  |  |  |
